According to patent US9656951B2, “Polymorphs of CDDO ethyl ester and uses thereof” (Applied Pharmaceutical Science, Inc., priority 2012, dated 2017):

Key:
[1] = in vivo; parameters: species or system mice; conditions: mouse, ip, 10 mg/kg
Description: Female CD-I mice were injected ip with 10 mg/kg of the three polymorphs of the compound of Formula I (CDDO ethyl) and methyl 2-cyano-3,12-dioxoIeana-1,9(11)-dien-28-oate (CDDO methyl) in DMSO-cremphor-PBS (1:1:8 weight by weight or volum by volum). Blood samples were collected at 0.083, 0.25, 0.5, 1, 2, 4, 8, and 24 hr post-dose. The levels were quantified by HPLC/MS using compound add to control blood for standard. PK results are shown at Table 3. The systemic exposure of the three polymorphs of the compound of Formula I of CDDO ethyl is higher than that of CDD) methyl. Following is the order: The glassy solid form of CDDO ethyl>Crystalline Form II of CDDO ethyl>Crystalline Form I of CDDO ethyl>CDDO Methyl

[2] = tested on: NO production induced by IFN-g in mouse macrophages (RAW 264.7 cells); experiment: Measurement of NO in RAW 264.7 cells induced by IFN-γ; assay type: cell-based; conditions: RAW264.7 cells, 10 ng/ml IFN-γ, 48 hours
Description: Assay Protocol Procedures
1 Maintained RAW264.7 cells in DMEM with 10% FBS at 37° C., 5% CO2.
Induction of NO in RAW264.7 Cells
1. The cells were seeded at 1×10^5/well onto 96-well cell culture plate.
2. After incubation for 2 hours at 37° C. under 5% CO2, the nonadherent cells were removed by aspiration and freshly prepared complete medium with 10 ng/ml IFN-γ and dilluted compounds was added.
3. Incubated the cells at 37° C. under 5% CO2 for another 48 hours.
Measurement of NO in RAW Cells
1. Centrifuged at 1000 rpm for 5 minutes to collect supernatant medium.
2. Prepared 1 ml of a 100 μM nitrite solution by diluting the provided 0.1 M Nitrite Standard 1:1,000 in the matrix or buffer used for the experimental samples.
4. Allowed the Sulfanilamide Solution and NED Solution to equilibrate to room temperature (15-30 minutes).
5. Added 50 μl of each experimental sample to wells in duplicate.
6. Used a multichannel pipettor to dispense 50 μl of the Sulfanilamide Solution to all experimental samples and wells containing the dilution series for the Nitrite Standard.
7. […]
10. Measured absorbance within 30 minutes in a plate reader with a filter between 520 nm and 550 nm.
The inhibitory activities [as measured by the IC50 (nM) value] of Crystalline Form II of the compound of Formula I (CDDO ethyl ester) on NO production induced by IFN-g in mouse macrophages 17 are shown in FIG. 5.

[3] = Stability determination of polymorphs (XRD) at 25° C./60% R.H. and 40° C./75% R.H.; assay type: physicochemical
Description: Other polymorphs of this invention were used similar in the study.
The glassy solid Form of the compound of Formula I, prepared as described in Example 4, was test at 25° C./60% R.H. and 40° C./75% R.H for one week.

[4] = 25° C./60% R.H. and 40° C./75% R.H.

Row | AUCInf [1] [ng·h/mL] | AUClast [1] [ng·h/mL] | Cmax [1] [ng/mL] | t1/2 [1] [h] | tmax [1] [h] | IC50 ([2]; listed as glassy solid form of the compound of Formula I (CDDO ethyl ester)) [nM] | change of XRD on storage ([3]; 25° C./60% R.H. and 40° C./75% R.H for one week) | AUC(0-inf) ([1]; female, CD-I) [ng·h/mL] | AUC(0-t) ([1]; female, CD-I) [ng·h/mL] | Cmax ([1]; female, CD-I) [ng/mL] | half-life ([1]; female, CD-I) [h] | tmax ([1]; female, CD-I) [h] | IC50 ([2]; listed as Crystalline Form II of the compound of Formula I (CDDO ethyl ester)) [nM] | change of XRD on storage [3, 4] | Compound | thermodynamic stability compared to other polymorphs [3, 4]
1 | 7526 | 4721 | 513 | 16.1 | 0.8 | 32 | no significant change of XRD | – | – | – | – | – | – | – | ethyl 2-cyano-3,12-dioxoIeana-1,9(11)-dien-28-oate [The glassy solid form of CDDO ethyl] | –
2 | – | – | – | – | – | – | – | 1970 | 1800 | 363 | 6.6 | 0.8 | – | – | COC(=O)[C@]12CCC(C)(C)C[C@H]1[C@H]1C(=O)C=C3[C@@]4(C)C=C(C#N)C(=O)C(C)(C)[C@@H]4CC[C@@]3(C)[C@]1(C)CC2 [CDDO Methyl Ester, methyl 2-cyano-3,12-dioxoIeana-1,9(11)-dien-28-oate, reference compound] | –
3 | 3840 | 3443 | 482 | 7.3 | 0.8 | – | – | – | – | – | – | – | 34 | no significant change of XRD | ethyl 2-cyano-3,12-dioxoIeana-1,9(11)-dien-28-oate [Crystalline Form II of CDDO ethyl] | most thermodynamically stable crystal form
4 | 3456 | 3221 | 466 | 8.3 | 0.8 | – | – | – | – | – | – | – | – | – | ethyl 2-cyano-3,12-dioxoIeana-1,9(11)-dien-28-oate [Crystalline Form I of CDDO ethyl] | –
